Results on 4 substances are retold here after publication PMC3740347 (Journal of the American Chemical Society, 2013).

Experiment [1] deals with T1, GST-VH1 (Vaccinia virus, UniProt P07239).
Experiment [2] deals with T1, GST-VH1. As to conditions: pH 7.4.

Read-outs that look alike come from different tables or passages of the source. Bounds are passed on as bounds.

Regarding YNAFAIpTAA [Peptide 2], the “fold decrease of VH1 catalytic activity relative to parent peptide” value on GST-VH1 [1] is reported as ~ 2 fold. Besides, on GST-VH1 [1] (pH 7.4), the Km was over 2000 µM and the kcat/KM stood at 93 ± 3 M⁻¹ s⁻¹. As to HQYFMpTEYVAT, on GST-VH1 [1], the kcat/KM stood at 490 M⁻¹ s⁻¹. Turning to HQYFMpTEpYVAT, the kcat/KM at GST-VH1 [1] was determined as 3200 M⁻¹ s⁻¹. Turning to YDEDFpYDYEF [Peptide 26], at GST-VH1 [2], the Km came to 11 µM and the kcat came out at 2.6 s⁻¹.
